Assay results from patent US8575145B2, “Triazolopyridine compounds as PIM kinase inhibitors” (Array BioPharma Inc., priority 2008, dated 2013).
pIC50: −log10 of the molar value. Counter-ions that a name gives are not always drawn. Like-named read-outs stand apart in the source and are kept apart here.

Tests used:
CD4+ T cells = assay: T Cell in vitro Functional Assay (C): IL-4 production; assay type: cell-based; conditions: Mus musculus; CD4+ T cells cultured with IL-4/anti-IFNγ, anti-CD3 restimulation 18 hours, ELISA
Protocol: The in vitro assays to assess the effects of the compounds of Examples 16, 18 and 26 on T cells were conducted as described in assays A, B, C and D below. CD4+ T cells were isolated from red blood cell-depleted splenocytes of C57B1/6J mice (Jackson Laboratories, catalog #000664) using CD4+ T cell isolation kit (Miltenyi, catalog #130-090-860).
In assay (C), 1000000 cells/mL of purified CD4+ T cells were mixed with 1 μg/mL anti-CD28, 10 ng/mL IL-4 (R&D Systems cat #404-ML-010/CF) and 2 μg/mL anti-IFNγ (R&D Systems cat #AB-485-NA) and placed into plates coated with 1 μg/mL anti-CD3. After 5 days, cells were harvested, washed and incubated overnight at 37° 5% CO2. The following day, 50,000 cells were plated into each well of a 96 well plate. A dilution series of compounds were prepared at 200× the final concentration in DMSO, then 10×stocks were prepared by dilution in cell culture media. 10 μL of 10× stocks were added to the cells in the 96 well plate and incubated for 2 hours at 37° C., 5% CO2. Cell/compound mixtures were then transferred to well coated with 0.1 μg anti-CD3 and incubated at 37° C., 5% CO2. Culture supernatants were removed 18 hours later and tested for IL-4 levels by ELISA (R&D Systems catalog #DY404). ELISA plates were quantified relative to a standard curve using Molecular Devices Versamax Reader at […] and Softmax Pro software.
For each of assays A, B, C and D, the values for each well were converted to a percent of vehicle-treated (DMSO) control (POC). These POC values were plotted as a function of compound concentration and an IC50 calculated using a 4-parameter curve-fit analysis program.

[1] = test system: HepG2 (Hepatocellular Carcinoma); assay: Cellular Proliferation Assay, cell line E; assay type: cell-based; conditions: Homo sapiens; HepG2, 72 hours, CelltiterBlue; read-out: Cell Line E antiproliferative IC50
Protocol: (§1) The assay for determination of the antiproliferative activity of multiple Pim inhibitors in the JAK2-driven cell lines was conducted as follows. Cells were plated out to 96-well plates at an initial density of 10,000 cells/well in 95 pt. Compounds were prepared at […] in DMSO by conducting 3-fold serial dilutions to give a 10-point dosing curve having a high dose of 1000 μM. Aliquots (5 μt) of these dilutions were then transferred to the appropriate wells of the 96-well plates containing cells to yield a final DMSO concentration of 0.5%. The cells were then incubated with compound for 72 hours at 37° C., 5% CO2. CelltiterBlue reagent (Promega, Catalog #: G8080) was then added (20 μL/well) and incubated at 37° C., 5% CO2 for 1-8 hours depending on the cell line being analyzed. The plate was then quantified employing a fluorescence plate reader (Model: Gemini [Molecular Devices]; Settings: 560 nm (Ex)/590 nm (Em) 570 nm (cut-off) [CellTiter Blue Assay].
(§2) The values for each well were then converted to a percent of untreated control (POC). These POC values were then plotted as a function of compound concentration. A 4-parameter curve-fit analysis was performed for each compound dilution and an IC50 value was calculated from this curve.
(§3) Cell lines • A: PC3 (Androgen independent prostate cancer) • B: K562 (Ph+chronic myelogenous leukemia) • C: MV4-11 (Acute myelogenous leukemia) • D: BxPC3 (Pancreatic Cancer) • E: HepG2 (Hepatocellular Carcinoma) • F: BaF3 (Mouse pro-B-cell line) • G: BaF3 TEL-JAK2 (Mouse pro-B-cell transformed with TEL-JAK2 fusion) • H: BaF2 BCR-Ab1 (Mouse pro-B-cell transformed with BCR-Ab1 fusion)

[2] = test system: BxPC3 (Pancreatic Cancer); assay: Cellular Proliferation Assay, cell line D; assay type: cell-based; conditions: Homo sapiens, BXPC-3; BxPC3, 72 hours, CelltiterBlue; read-out: Cell Line D antiproliferative IC50
Protocol: as §1, §2, §3

PIM-1 = PIM-1 (Homo sapiens (Human), UniProt P11309); assay: PIM-1 Enzyme Assay; assay type: biochemical
Summary of the method: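 Radiometric kinase assay in 20 mM K+MOPS pH 7.4, 10 mM MgCl2, 0.005% Tween-20, 1 mM DTT, 2% DMSO final; 60 min at 22° C, stopped with H3PO4, product captured on P81 filter and counted by scintillation. IC50 from 4-parameter logistic fit of percent of control.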

[3] = test system: BaF2 BCR-Ab1 (Mouse pro-B-cell transformed with BCR-Ab1 fusion); assay: Cellular Proliferation Assay, cell line H; assay type: cell-based; conditions: BaF2 BCR-Ab1, 72 hours, CelltiterBlue, read-out: Cell Line H antiproliferative IC50
Protocol: as §1, §2, §3

[4] = target: GST-tagged recombinant full-length human PIM-2 (Homo sapiens (Human), UniProt Q9P1W9); assay: PIM-2 Enzyme Assay; conditions: read-out: PIM-2 IC50; 4 μM ATP, […] PIM-2
[5] = test system: MV4-11 (Acute myelogenous leukemia); assay: Cellular Proliferation Assay, cell line C; assay type: cell-based; conditions: Homo sapiens; MV4-11, 72 hours, CelltiterBlue; read-out: Cell Line C antiproliferative IC50
Protocol: as §1
The values for each well were then converted to a percent of untreated control (POC). These POC values were then plotted as a function of compound concentration. A 4-parameter curve-fit analysis was performed for each compound dilution and an IC50 value was calculated from this curve. […]

Sequence of GST-tagged recombinant full-length human PIM-2 (Q9P1W9 whole entry): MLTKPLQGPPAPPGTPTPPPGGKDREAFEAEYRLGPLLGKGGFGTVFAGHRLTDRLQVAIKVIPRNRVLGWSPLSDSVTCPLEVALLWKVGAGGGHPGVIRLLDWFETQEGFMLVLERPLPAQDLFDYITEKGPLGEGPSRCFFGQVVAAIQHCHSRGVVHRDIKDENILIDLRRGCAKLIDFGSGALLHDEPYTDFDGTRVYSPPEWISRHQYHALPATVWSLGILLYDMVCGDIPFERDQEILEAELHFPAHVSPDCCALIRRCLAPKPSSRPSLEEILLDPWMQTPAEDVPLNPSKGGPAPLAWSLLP
Sequence of PIM-1 (P11309 whole entry, species assumed): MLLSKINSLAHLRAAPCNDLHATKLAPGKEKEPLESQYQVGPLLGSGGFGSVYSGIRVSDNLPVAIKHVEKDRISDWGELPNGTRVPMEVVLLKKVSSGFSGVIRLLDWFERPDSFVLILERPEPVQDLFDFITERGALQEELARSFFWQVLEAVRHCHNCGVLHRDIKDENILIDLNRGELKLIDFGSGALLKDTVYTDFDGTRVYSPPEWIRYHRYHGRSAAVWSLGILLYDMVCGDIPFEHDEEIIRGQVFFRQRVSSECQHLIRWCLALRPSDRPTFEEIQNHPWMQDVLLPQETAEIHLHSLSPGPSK

| pIC50 (CD4+ T cells) | pIC50 [1] | pIC50 [2] | pIC50 (PIM-1; 35 μM ATP, 0.25 nM PIM-1) | pIC50 [4] | SMILES | pIC50 [3] | pIC50 [5] | pIC50 (PIM-1) |
| --- | --- | --- | --- | --- | --- | --- | --- | --- |
| ≥ 6.00 | < 5.00 | < 5.00 | 9.00 | 6.77 | c1cc(OCC2CCCNC2)c2nc(-c3nnc4ccccn34)ccc2c1 (centres unmarked) [Example 16, 2-([1,2,4]Triazolo[4,3-a]pyridin-3-yl)-8-(piperidin-3-ylmethoxy)quinoline] | > 5.30 | – | – |
| ≥ 6.00 | > 5.00 | > 5.00 | – | 7.31 | CC(C)(CN)COc1cccc2ccc(-c3nnc4ccccn34)nc12 [Example 18, 3-(2-([1,2,4]Triazolo[4,3-a]pyridin-3-yl)quinolin-8-yloxy)-2,2-dimethylpropan-1-amine] | > 5.70 | > 5.70 | – |

| SMILES | pIC50 (CD4+ T cells) | pIC50 [1] | pIC50 [2] | pIC50 (PIM-1; 35 μM ATP, 0.25 nM PIM-1) | pIC50 [4] | pIC50 [3] | pIC50 [5] | pIC50 (PIM-1) |
| --- | --- | --- | --- | --- | --- | --- | --- | --- |
| F[C@@H]1CNCCC1Oc1cccc2ccc(-c3nnc4ccccn34)nc12 (stereo in doubt) [Example 26, 2-([1,2,4]triazolo[4,3-a]pyridin-3-yl)-8-((cis)-3-fluoropiperidin-4-yloxy)quinoline dihydrochloride] | ≥ 5.30 | – | – | – | 6.86 | > 5.70 | > 5.70 | 8.52 |
